Test results from patent publication US20210003556A1, “IMPROVING ANTI-PD-1 CANCER THERAPY” (Mayo Foundation for Medical Education and Research, priority 2018, published 2021).

Assays:
[1] = tested on: CX3CR1^+ CD8^+ T cells; type: cell-based, human
Method: FIG. 7 is a graph plotting CX3CR1^+ CD8^+ and CX3CR1^− CD8^+ T cell survival during treatment with doxorubicin (Dox) in vitro. […] N=4 donors.
(§1) Stimulation and culture of human T cells: Human CD8^+ T cells were purified using a human CD8^+ T cell enrichment kit (Stemcell). CD8^+ T cells were incubated with chemotherapy drugs (paclitaxel, carboplatin, or doxorubicin), either alone or with T cell activators (DYNABEADS®, human T-activator CD3/CD28 beads) for 24-48 hours, followed with staining for CX3CR1 and Granzyme B. ABCB1 inhibitor PGP4008 was purchased from Enzo Life Sciences (Farmingdale, N.Y.).
To determine the effect of chemotherapeutic treatment on survival of CX3CR1^+ and CX3CR1^− CD8^+ T cells, subsets of these cells were isolated, placed in 96 well plates at 2×10^5 cells/well, and incubated with doxorubicin (Dox) at 0.5 μg/ml for 40 hours.

[2] = tested on: CX3CR1^+ CD8^+ T cells; test: CTL function (CD107a expression, IFN-γ production) of CD8+ T cells with ABCB1 inhibitor with or without CP; type: cell-based, human; conditions: anti-CD3/CD28 beads 24 hours
Method: as §1
Since the pharmacodynamics of doxorubicin may not be able to exactly reflect the efflux of carboplatin and paclitaxel (CP), and these drugs cannot be directly tracked due to lack of fluorescent capability, the impact of the drug transporter inhibitor on the function of T cells in the presence of CP was examined to determine whether T cell function might be dampened due to the reduced ability of T cells to efflux CP. ABCB1 transporter inhibitor (PGP4008) was incubated with resting or activated human primary CD8^+ T cells in vitro in the presence of CP. T cell function was measured by based pm degranulation (CD107a expression) and intracellular IFN-γ production.

[3] = tested on: CX3CR1^+ CD8^+ T cells; test: IL-15 treatment of human PBMC in vitro (proliferation/expansion of CX3CR1+ CD8+ T cells); type: cell-based
Method: FIG. 8A is a flow cytometry plot showing representative CD122 expression by CX3CR1^+ CD8^+ T cells. FIG. 8B is a graph plotting CD122 expression by CX3CR1^+ and CX3CR1^− CD8^+ T cells in PBMC after incubation with PHA-L for 48 hours. […] FIG. 8C is a graph plotting proliferation of CX3CR1^+ CD8^+ T cells treated in vitro with human IL-15 for 48 hours.
FIG. 9 is a graph plotting % CX3CR1^+ Granzyme CD8^+ T cells among human peripheral blood mononuclear cells (PBMC) cultured with graded concentrations of rh-IL-15 for 24 hours in vitro.
For at least a couple of reasons, IL-15 may improve anti-PD-1 therapy for non-responsive tumors. First, the transcription of CD122 (IL-2 receptor beta) was increased in CD11a^high CD8^+ T cells in responders 25 compared to non-responders (FIG. 1B). […] Further, human PBMC were incubated with human IL-15 (10 ng/ml) or anti-CD3/CD28 beads for 48 hours, and proliferation of CX3CR1^+ CD8^+ T cells was assessed based on % Ki67^+ cells.
To test whether IL-15 directly contributes to the expansion of CX3CR1^+ Granzyme B^+ CD8^+ T cells, human recombinant IL-15 was incubated for 24 hours with PBMC isolated from healthy human donors, followed by flow cytometry analysis of CX3CR1^+ Granzyme B^+ CD8^+ T cells. […] Thus, IL-15 may improve the efficacy of PD-1 ICI therapy by expanding CX3CR1^+ Granzyme B^+ CD8^+ T cells that are capable of rejecting tumors.

[4] = tested on: metastatic melanoma; test: Salvage chemotherapy added to anti-PD-1 in metastatic melanoma patients who failed PD-1 blockade; type: in vivo, human; conditions: BRAF wild-type metastatic melanoma; pembrolizumab alone, then carboplatin and paclitaxel added, assessed three weeks after the combination
Method: FIGS. 2A to 2C show patient responses to CIT with an increase of CX3CR1^+ Granzyme B^+ CD8^+ T cells. […] Given the disease progression while on pembrolizumab, paclitaxel, and carboplatin (white arrows) were initiated at 175 mg/m^2 and an AUC (area under curve) of 5 every 3 weeks for 2 cycles in combination with pembrolizumab. The patient received total of 12 cycles of pembrolizumab at the end of the follow up. FIG. 2B is a pair of flow cytometry plots showing CX3CR1 levels pre- and post-chemo, as indicated. Following the same schedule of treatment as in FIG. 2A, blood samples were collected for flow analysis of CX3CR1^+ Granzyme B^+ among CD11a^highCD8^+ T cells. […]
Patient information: The studies described herein were conducted according to Declaration of Helsinki principles. […] Response to treatment was evaluated according to standard clinical practice guidelines using Response Evaluation Criteria In Solid Tumors (RECIST) criteria. […]
The frequency of CX3CR1^+ Granzyme B^+ CD8^+ tumor-reactive T cells was examined before and after chemotherapy combined with anti-PD-1 therapy in patients with metastatic melanoma. […] The frequency of CX3CR1^+ Granzyme B^+ cells also was measured and compared in other responders and non-responders prior to and after chemotherapy. […]

[5] = tested on: Bim^+ CD8^+ T cells; test: % Bim+ CD8+ T cells in peripheral blood of metastatic melanoma patients after PD-1 ICI therapy; type: in vivo, human; conditions: 12 weeks after anti-PD-1 therapy; responders vs non-responders, first cohort
Source text: FIGS. 15A to 15D illustrate changes in Bim^+ CD8^+ T cells in response to PD-1 ICI therapy in patients with MM. FIG. 15A is a graph plotting percentages of changes in the frequency (%) of Bim^+ CD8^+ T cells in MM patients with progressive diseases (P, n=7) and responders (R, n=6) at 12-weeks after PD-1 therapy. **P<0.01, error bars, median with interquartile ranges. FIG. 15B is a series of images of metastatic melanoma (white arrows) in one patient with pseudo-progression at 12 weeks after PD-1 therapy. FIG. 15C is a graph plotting % Bim^+ CD8^+ T cells of the patient of FIG. 15B at baseline, 12 weeks, and 16 weeks after PD-1 therapy. FIG. 15D is a graph plotting the % change of Bim^+ CD8^+ T cells in a second cohort of melanoma patients (total 38) at 12 weeks after PD-1 therapy.
Further studies were conducted to examine and compare the frequency of Bim^+ cells among circulating CD11a^high CD8^+ T cells, since this population of T cells is enriched with tumor-reactive T cells (Liu et al., Oncoimmunology, 2013, 2:e23972). […] In addition, Bim levels (MFI) were positively correlated with PD-1 levels among CD11a^high CD8^+ T cells of cancer patients (FIG. 14B, P<0.01; Duraiswamy et al., J Immunol, 2011, 186:4200-4212). […] Therefore, measurement of the frequency of Bim^+ CD8^+ T cells can be used to the degree to which PD-1 signals have been blocked in cancer patients. […]

Compound: O=C(Cc1ccccc1)Nc1c2c(nc3ccccc13)N(Cc1ccccc1)CC2 [PGP4008]
- apoptosis of CX3CR1+ CD8+ T cells after addition of ABCB1 inhibitor ([1]; cultured with Doxorubicin 0.5 μg/ml for 40 hours plus PGP4008): increased apoptosis
- function of CX3CR1+ CD8+ T cells (CD107a expression, IFN-γ production) ([2]; in the absence of CP): not in the absence of CP
- function of CX3CR1+ CD8+ T cells (CD107a expression, IFN-γ production) ([2]; in the presence of CP (carboplatin and paclitaxel)): significantly inhibited the function

Compound: COc1cccc2c1C(=O)c1c(O)c3c(c(O)c1C2=O)C[C@@](O)(C(=O)CO)C[C@@H]3O[C@H]1C[C@H](N)[C@H](O)[C@H](C)O1 [doxorubicin]
- apoptosis (Annexin V) of CD8+ T cells ([1]; human, 40 h, 0.5 μg/ml): fewer CX3CR1^+ CD8^+ T cells (efflux cells) than CX3CR1^− CD8^+ T cells (non-efflux cells) underwent apoptosis
- percentage of Dox+/annexin V low (live) cells ([1]; human, 40 h, 0.5 μg/ml): higher in the CX3CR1^+ subset of CD8^+ T cells than in the CX3CR1^− CD8^+ subset

Compound: human IL-15: human recombinant interleukin-15
- expansion of CX3CR1+ Granzyme B+ CD8+ T cells among PBMC ([3]; graded concentrations of rh-IL-15, 24 hours, healthy human donors): significantly increased the expansion
- proliferation of CX3CR1+ CD8+ T cells (% Ki67+ cells) ([3]; human PBMC, human IL-15 10 ng/ml, 48 hours): increased proliferation

Compound: pembrolizumab: anti-PD-1 antibody
- disease status (PET/CT) in one patient [4]: rapid progression of metastatic melanoma in the peritoneum and liver
- % Bim+ CD8+ T cells [5]: significantly decreased in responders compared to non-responders
